In article PMC9401487 (Clinical Cancer Research, 2021):

Tested on: patients with advanced solid tumors
Assay: Phase I safety and tolerability
Format: in vivo, human
[1] = Cohort 5 (N=8), 60 mg QD 7 days + carboplatin
[2] = Cohort 6 (N=7), co-dosing 60 mg QD + carboplatin days 1–3
[3] = Cohort 6: 60 mg QD days 1–3 + carboplatin AUC5 day 1, 7 patients
[4] = Cohort 7 (N=6), co-dosing 40 mg QD + carboplatin days 1 and 2

## C[C@@H]1COCCN1c1cc(C2([S@](C)(=N)=O)CC2)nc(-c2cc[nH]c3nccc2-3)n1 [ceralasertib]
[1]
  TEAE Arthralgia, Grade 1–2: 2 (25) patients, n (%)
  TEAE Arthralgia, Grade ≥3: 0 patients, n (%)
  TEAE Aspartate aminotransferase increased, Grade 1–2: 1 (13) patients, n (%)
  TEAE Aspartate aminotransferase increased, Grade ≥3: 1 (13) patients, n (%)
  TEAE Constipation, Grade 1–2: 1 (13) patients, n (%)
  TEAE Constipation, Grade ≥3: 0 patients, n (%)
  TEAE Contusion, Grade 1–2: 0 patients, n (%)
  TEAE Contusion, Grade ≥3: 0 patients, n (%)
  TEAE Cough, Grade 1–2: 0 patients, n (%)
  TEAE Cough, Grade ≥3: 0 patients, n (%)
  TEAE Decreased appetite, Grade 1–2: 2 (25) patients, n (%)
  TEAE Decreased appetite, Grade ≥3: 0 patients, n (%)
  TEAE Diarrhea, Grade 1–2: 1 (13) patients, n (%)
  TEAE Diarrhea, Grade ≥3: 0 patients, n (%)
  TEAE Dizziness, Grade 1–2: 2 (25) patients, n (%)
  TEAE Dizziness, Grade ≥3: 0 patients, n (%)
  TEAE Dyspnea, Grade 1–2: 0 patients, n (%)
  TEAE Dyspnea, Grade ≥3: 0 patients, n (%)
  TEAE Fatigue, Grade 1–2: 3 (38) patients, n (%)
  TEAE Fatigue, Grade ≥3: 0 patients, n (%)
  TEAE Hypocalcemia, Grade 1–2: 2 (25) patients, n (%)
  TEAE Hypocalcemia, Grade ≥3: 0 patients, n (%)
  TEAE Insomnia, Grade 1–2: 0 patients, n (%)
  TEAE Insomnia, Grade ≥3: 0 patients, n (%)
  TEAE Lower respiratory tract infection, Grade 1–2: 1 (13) patients, n (%)
  TEAE Lower respiratory tract infection, Grade ≥3: 1 (13) patients, n (%)
  TEAE Nausea, Grade 1–2: 4 (50) patients, n (%)
  TEAE Nausea, Grade ≥3: 0 patients, n (%)
  TEAE Neutropenia, Grade 1–2: 0 patients, n (%)
  TEAE Neutropenia, Grade ≥3: 0 patients, n (%)
  TEAE Neutrophil count decreased, Grade 1–2: 0 patients, n (%)
  TEAE Neutrophil count decreased, Grade ≥3: 1 (13) patients, n (%)
  TEAE Platelet count decreased, Grade 1–2: 1 (13) patients, n (%)
  TEAE Platelet count decreased, Grade ≥3: 0 patients, n (%)
  TEAE Pyrexia, Grade 1–2: 2 (25) patients, n (%)
  TEAE Pyrexia, Grade ≥3: 0 patients, n (%)
  TEAE Thrombocytopenia, Grade 1–2: 4 (50) patients, n (%)
  TEAE Thrombocytopenia, Grade ≥3: 2 (25) patients, n (%)
  TEAE Upper respiratory tract infection, Grade 1–2: 0 patients, n (%)
  TEAE Upper respiratory tract infection, Grade ≥3: 0 patients, n (%)
  TEAE Vomiting, Grade 1–2: 0 patients, n (%)
  TEAE Vomiting, Grade ≥3: 0 patients, n (%)
  TEAE White blood cell count decreased, Grade 1–2: 0 patients, n (%)
  TEAE White blood cell count decreased, Grade ≥3: 1 (13) patients, n (%)
[2]
  TEAE Abdominal pain, Grade 1–2: 1 (14) patients, n (%)
  TEAE Abdominal pain, Grade ≥3: 0 patients, n (%)
  TEAE Alanine aminotransferase increased, Grade 1–2: 0 patients, n (%)
  TEAE Alanine aminotransferase increased, Grade ≥3: 0 patients, n (%)
  TEAE Anemia, Grade 1–2: 2 (29) patients, n (%)
  TEAE Anemia, Grade ≥3: 4 (57) patients, n (%)
  TEAE Any AE, Grade 1–2: 0 patients, n (%)
  TEAE Any AE, Grade ≥3: 7 (100) patients, n (%)
  TEAE Arthralgia, Grade 1–2: 0 patients, n (%)
  TEAE Arthralgia, Grade ≥3: 0 patients, n (%)
  TEAE Aspartate aminotransferase increased, Grade 1–2: 0 patients, n (%)
  TEAE Aspartate aminotransferase increased, Grade ≥3: 0 patients, n (%)
  TEAE Constipation, Grade 1–2: 1 (14) patients, n (%)
  TEAE Constipation, Grade ≥3: 0 patients, n (%)
  TEAE Contusion, Grade 1–2: 0 patients, n (%)
  TEAE Contusion, Grade ≥3: 0 patients, n (%)
  TEAE Cough, Grade 1–2: 0 patients, n (%)
  TEAE Cough, Grade ≥3: 0 patients, n (%)
  TEAE Decreased appetite, Grade 1–2: 0 patients, n (%)
  TEAE Decreased appetite, Grade ≥3: 0 patients, n (%)
  TEAE Diarrhea, Grade 1–2: 1 (14) patients, n (%)
  TEAE Diarrhea, Grade ≥3: 0 patients, n (%)
  TEAE Dizziness, Grade 1–2: 1 (14) patients, n (%)
  TEAE Dizziness, Grade ≥3: 0 patients, n (%)
  TEAE Dyspnea, Grade 1–2: 1 (14) patients, n (%)
  TEAE Dyspnea, Grade ≥3: 0 patients, n (%)
  TEAE Fatigue, Grade 1–2: 1 (14) patients, n (%)
  TEAE Fatigue, Grade ≥3: 0 patients, n (%)
  TEAE Hypocalcemia, Grade 1–2: 1 (14) patients, n (%)
  TEAE Hypocalcemia, Grade ≥3: 0 patients, n (%)
  TEAE Insomnia, Grade 1–2: 2 (29) patients, n (%)
  TEAE Insomnia, Grade ≥3: 0 patients, n (%)
  TEAE Lower respiratory tract infection, Grade 1–2: 1 (14) patients, n (%)
  TEAE Lower respiratory tract infection, Grade ≥3: 0 patients, n (%)
  TEAE Nausea, Grade 1–2: 6 (86) patients, n (%)
  TEAE Nausea, Grade ≥3: 1 (14) patients, n (%)
  TEAE Neutropenia, Grade 1–2: 1 (14) patients, n (%)
  TEAE Neutropenia, Grade ≥3: 5 (71) patients, n (%)
  TEAE Neutrophil count decreased, Grade 1–2: 0 patients, n (%)
  TEAE Neutrophil count decreased, Grade ≥3: 1 (14) patients, n (%)
  TEAE Platelet count decreased, Grade 1–2: 0 patients, n (%)
  TEAE Platelet count decreased, Grade ≥3: 0 patients, n (%)
  TEAE Pyrexia, Grade 1–2: 1 (14) patients, n (%)
  TEAE Pyrexia, Grade ≥3: 0 patients, n (%)
  TEAE Thrombocytopenia, Grade 1–2: 2 (29) patients, n (%)
  TEAE Thrombocytopenia, Grade ≥3: 4 (57) patients, n (%)
  TEAE Upper respiratory tract infection, Grade 1–2: 0 patients, n (%)
  TEAE Upper respiratory tract infection, Grade ≥3: 0 patients, n (%)
  TEAE Vomiting, Grade 1–2: 4 (57) patients, n (%)
  TEAE Vomiting, Grade ≥3: 1 (14) patients, n (%)
  TEAE White blood cell count decreased, Grade 1–2: 0 patients, n (%)
  TEAE White blood cell count decreased, Grade ≥3: 2 (29) patients, n (%)
[3]
  Number of DLTs: no DLTs
  SRC decision (tolerability): not tolerated beyond cycle 1
[4]
  TEAE Abdominal pain, Grade 1–2: 2 (33) patients, n (%)
  TEAE Abdominal pain, Grade ≥3: 0 patients, n (%)
  TEAE Alanine aminotransferase increased, Grade 1–2: 1 (17) patients, n (%)
  TEAE Alanine aminotransferase increased, Grade ≥3: 0 patients, n (%)
  TEAE Anemia, Grade 1–2: 1 (17) patients, n (%)
  TEAE Anemia, Grade ≥3: 4 (67) patients, n (%)
  TEAE Any AE, Grade 1–2: 1 (17) patients, n (%)
  TEAE Any AE, Grade ≥3: 5 (83) patients, n (%)
  TEAE Arthralgia, Grade 1–2: 1 (17) patients, n (%)
  TEAE Arthralgia, Grade ≥3: 0 patients, n (%)
  TEAE Aspartate aminotransferase increased, Grade 1–2: 1 (17) patients, n (%)
  TEAE Aspartate aminotransferase increased, Grade ≥3: 0 patients, n (%)
